Experiments:
[1] = tested on: human embryonic stem cell derived neural stem cells (NSCs); experiment: Neural stem cell proliferation assay (neurogenesis assay, ATP levels by CellTiterGlo); format: cell-based; settings: Homo sapiens, Neural stem cell, 96 h; compound concentration at which 150% activity of control (100%) is reached; NSC proliferation by ATP (CellTiterGlo) after 4 days incubation; dose response 8 μM to 8 nM
Protocol: Neural Stem Cell Proliferation Assay
Neurogenic properties of small molecules are determined based on the proliferation of human embryonic stem cell derived neural stem cells (NSCs) which were derived via a dual smad inhibition as previously described (Chambers, S. M., et al., Highly efficient neural conversion of human ES and iPS cells by dual inhibition of SMAD signaling, Nature biotechnology, 2009. 27(3): p. 275-80.)
Compounds respond is measured by the increase in cells based on ATP levels (Promega:CellTiterGlo®) after an incubation period of 4 days.
NSCs are thawed and expanded over 3 passages. On the 14th day, NSCs are seeded in Polyornithin/Laminin coated 384 well plates at a cell density of 21,000 cells/cm^2 in a media volume of 38 μl.
4 hours after cell seeding, compound solutions are added at a volume of 2 μl. Stock solutions of the compounds (water, 5% DMSO) are diluted to obtain a dose response (11 points, dilution factor is 2), ranging from 8 μM to 8 nM. Controls are run to consistently determine the neurogenic properties of the cells: • Negative (neutral) control is cell culture Media (final DMSO concentration: 0.25%). • Positive controls are: • 1. cell culture Media+100 ng/ml FGF2 (final DMSO concentration: 0.1%) • 2. cell culture Media+20 ng/ml EGF (final DMSO concentration: 0.1%) • 3. cell culture Media+100 ng/ml Wnt3a (final DMSO concentration: 0.1%)
After 4 days incubation at 37° C., 5% CO2, the amount of ATP per well is quantified. The ATP concentration is proportional to the cell number. ATP is quantified by using the Promega CellTiterGlo® kit. The CellTiterGlo® reagents contain a cell lysis buffer, a thermo stable luciferase (UltraGlo™ recombinant luciferase), magnesium and luciferin. Luciferin reacts with ATP producing oxyluciferin, AMP and light. The luminescence signal is proportional to the ATP content.
The value of negative (neutral) control is determined for each assay plate by taking the average of 16 negative control wells. The neurogenic compound response is calculated for each compound as (compound/Negative Control)*100.
The values of EC150 from the dose response curve are determined for each test compound. The EC150 is the compound concentration at which 150% activity of control (100%) is reached.

Cc1c(C(N)=O)n(C)c2c(-c3ccc(Cl)cc3Cl)cc(F)cc12 [Example 61, 7-(2,4-Dichlorophenyl)-5-fluoro-1,3-dimethylindole-2-carboxamide]
EC (150% of control) [1]: 0.21 µM | melting point: 169 °C

Cn1c(C(N)=O)cc2cc(C#N)cc(-c3ccc(F)cc3F)c21 [Example 62, 5-Cyano-7-(2,4-difluorophenyl)-1-methylindole-2-carboxamide]
EC (150% of control) [1]: 0.12 µM | melting point: 206.5 °C

Cn1c(C(N)=O)cc2cc(C#N)cc(-c3ccc(Cl)cc3Cl)c21 [Example 63, 5-Cyano-7-(2,4-dichlorophenyl)-1-methylindole-2-carboxamide]
EC (150% of control) [1]: 0.21 µM | melting point: 222.5 °C

Cc1c(C(N)=O)n(C)c2c(-c3ccc(F)cc3F)cc(F)cc12 [Example 64, 7-(2,4-Difluorophenyl)-5-fluoro-1,3-dimethylindole-2-carboxamide]
EC (150% of control) [1]: 0.091 µM | melting point: 192 °C

Cc1cc(-c2cc(C#N)cc3cc(C(N)=O)[nH]c23)ccc1F [Example 66, 5-Cyano-7-(4-fluoro-3-methylphenyl)-1H-indole-2-carboxamide]
EC (150% of control) [1]: 0.62 µM | melting point: 247 °C

Cn1c(C(N)=O)cc2cc(C#N)cc(-c3ccc([N+](=O)[O-])cc3)c21 [Example 67, 5-Cyano-1-methyl-7-(4-nitrophenyl)-indole-2-carboxamide]
EC (150% of control) [1]: 2.05 µM | melting point: 236 °C

N#Cc1cc(-c2ccc([N+](=O)[O-])cc2)c2[nH]c(C(N)=O)cc2c1 [Example 68, 5-Cyano-7-(4-nitrophenyl)-1H-indole-2-carboxamide]
EC (150% of control) [1]: 0.071 µM | melting point: 269 °C

N#Cc1cc(-c2ccnc(Cl)c2)c2[nH]c(C(N)=O)cc2c1 [Example 70, 7-(2-Chloropyridin-4-yl)-5-cyano-1H-indole-2-carboxamide]
EC (150% of control) [1]: 0.14 µM | melting point: 297 °C

COc1ccc(-c2cc(C#N)cc3cc(C(N)=O)n(C)c23)cc1 [Example 71, 5-Cyano-7-(4-methoxyphenyl)-1-methylindole-2-carboxamide]
EC (150% of control) [1]: 0.21 µM | melting point: 206.5 °C

COc1ccc(-c2cc(C#N)cc3cc(C(N)=O)[nH]c23)cc1 [Example 72, 5-Cyano-7-(4-methoxyphenyl)-1H-indole-2-carboxamide]
EC (150% of control) [1]: 0.19 µM | melting point: 255 °C

Cn1c(C(N)=O)cc2cc(C#N)cc(-c3ccc(OC(F)(F)F)cc3)c21 [Example 73, 5-Cyano-1-methyl-7-[4-(trifluoromethoxy)phenyl]indole-2-carboxamide]
EC (150% of control) [1]: 7.5 µM | melting point: 176 °C

Cc1ccc(-c2cc(F)cc3c(C)c(C(N)=O)[nH]c23)cc1 [Example 74, 5-Fluoro-3-methyl-7-(4-methylphenyl)-1H-indole-2-carboxamide]
EC (150% of control) [1]: 0.17 µM | melting point: 192 °C

Cc1c(C(N)=O)[nH]c2c(-c3ccc(F)c(F)c3F)cc(F)cc12 [Example 75, 5-Fluoro-3-methyl-7-(2,3,4-trifluorophenyl)-1H-indole-2-carboxamide]
EC (150% of control) [1]: 0.082 µM | melting point: 209 °C

COc1ccc(-c2cc(F)cc3c(C)c(C(N)=O)[nH]c23)cc1 [Example 76, 5-Fluoro-7-(4-methoxyphenyl)-3-methyl-1H-indole-2-carboxamide]
EC (150% of control) [1]: 0.009 µM | melting point: 217 °C

Cc1c(C(N)=O)[nH]c2c(-c3ccc(Cl)cc3F)cc(F)cc12 [Example 77, 7-(4-Chloro-2-fluorophenyl)-5-fluoro-3-methyl-1H-indole-2-carboxamide]
EC (150% of control) [1]: 0.022 µM | melting point: 216 °C

Cc1c(C(N)=O)[nH]c2c(-c3ccncc3)cc(F)cc12 [Example 78, 5-Fluoro-3-methyl-7-pyridin-4-yl-1H-indole-2-carboxamide]
EC (150% of control) [1]: 0.053 µM | melting point: 270 °C
